The nature of data set [1]: Functional assay to measure dose dependent changes in cell viability from drug treatment in Vero E6 miRFP670 cells (cotreated with P-gp inhibitor, CP100356) that are infected with Dengue virus type 2 New Guinea C. […] Cytotoxicity is reported via via analysis of DAPI count using high-content imager. The assay has been performed by KU Leuven. It counts as toxicity, cell-based, Vero C1008. The settings on record: chlorocebus sabaeus, p-gp concentration 500 nM.

Data set [2] can be described thus: Functional CPE-based assay to measure dose dependent changes in cell viability from drug treatment in Vero E6 miRFP670 cells. Cells are treated with antiviral candidates that have been serially diluted. Cytotoxicity is reported via analysis of MTS assays in uninfected cells. The assay has been performed by KU Leuven. It counts as toxicity, Vero C1008. The following applies: chlorocebus sabaeus.

Data set [3] is described as follows: Functional CPE-based assay to measure dose dependent changes in cell viability from drug treatment in Vero E6 miRFP670 cells (cotreated with P-gp inhibitor, CP100356). Cells are treated with antiviral candidates that have been serially diluted. Cytotoxicity is reported via analysis of MTS assays in uninfected cells. The assay has been performed by KU Leuven. It counts as toxicity, Vero C1008. The settings on record: chlorocebus sabaeus, p-gp concentration 500 nM. (Formazan colour is commonly taken as a measure of viable cells.)

Data set [4] in a line: Functional metabolic assay to measure dose dependent changes in cell viability from drug treatment in Vero E6/TMPRSS2 cells (cotreated with P-gp inhibitor, Elacridar). […] Cytotoxicity is reported via measuring absorbance and analysis of MTT/MTS assays in uninfected cells. The assay has been performed by Icahn School of Medicine at Mount Sinai. It counts as toxicity, cell-based, VeroE6/TMPRSS2. The settings on record: chlorocebus sabaeus, p-gp concentration 2 uM.

Data set [5] in a line: Functional metabolic assay to measure dose dependent changes in cell viability from drug treatment in Vero E6/TMPRSS2 cells. Cells are treated with antiviral candidates that have been serially diluted. Cytotoxicity is reported via measuring absorbance and analysis of MTT/MTS assays in uninfected cells. The assay has been performed by Icahn School of Medicine at Mount Sinai. It counts as toxicity, cell-based, VeroE6/TMPRSS2. The settings on record: chlorocebus sabaeus; for CC50: Vero E6/TMPRSS2 cells; for CC10: veroe6/tmprss2.

[6] abbreviates: with CP100356 (P-gp inhibitor, concentration not stated).
Where [7] appears, read: Vero E6 miRFP670 cells, with CP100356 (P-gp inhibitor, concentration not stated).
Setting [8] is: Vero E6/TMPRSS2 cells, with Elacridar (P-gp inhibitor, concentration not stated).

Where “and” joins values, the source holds several entries; their conditions need not be identical. Equal entries are not always repeated.

Regarding `C#C[C@@]1(O)[C@H](O)[C@@H](CO)O[C@H]1n1ccc2c(N)ncnc21`, the CC50 was 40.4 µM and 28.2 µM in data set [1] (vero c1008); above 50 µM in data set [1] (setting [6]); above 50 µM in data set [2] (Vero E6 miRFP670 cells); above 50 µM in data set [3] (setting [7]); 38 µM in data set [3] (vero c1008).

In the case of `CC(C)Cc1nc2c(C(=O)Nc3ccc4c(c3)CNC4)cc(Br)cc2[nH]1`, the CC50 in data set [1] (setting [6]) came out at 0.864 µM; in data set [4] (setting [8]), 20.9 µM; in data set [2] (Vero E6 miRFP670 cells), 0.623 µM. In data set [4] (veroe6/tmprss2), the CC10 was 0.569 µM.

With `O=C(Nc1ccc2c(c1)CNC2)c1cc(Cl)cc(-n2cccc2)c1`, the CC50 is above 50 µM in data set [1] (setting [6]), 46.4 µM in data set [4] (setting [8]), 34.8 µM in data set [4] (veroe6/tmprss2) and above 50 µM in data set [2] (Vero E6 miRFP670 cells). For the same compound, the CC10 in data set [4] (veroe6/tmprss2) was 17.502 µM and 9.003 µM.

For the compound `CC(C)NC(=O)[C@H](Nc1ccc2c(c1)CNC2)c1cc(Cl)cc2[nH]ncc12`, the cytotoxic concentration (CC50) was > 50 µM and 7.69 µM and 29 µM in data set [1] (vero c1008); above 50 µM in data set [4] (setting [8]); above 50 µM in data set [2] (Vero E6 miRFP670 cells); above 50 µM in data set [3] (setting [7]); 47.7 µM in data set [3] (vero c1008). Also, the CC10 in data set [4] (veroe6/tmprss2) is above 50 µM.

For `O=C(Nc1ccc2c(c1)CNC2)c1cc(Cl)cc(C2CC2)c1`, the half-maximal cytotoxic concentration (CC50) in data set [1] (setting [6]) is 11.2 µM; in data set [4] (setting [8]), above 50 µM; in data set [2] (Vero E6 miRFP670 cells), 10.5 µM. In addition, the CC10 in data set [4] (veroe6/tmprss2) came out at 0.136 µM.

Consider `O=C1Cc2c(cccc2C(=O)Nc2ccc3c(c2)CNC3)N1`, for which the half-maximal cytotoxic concentration (CC50) in data set [1] (setting [6]), in data set [2] (Vero E6 miRFP670 cells) and in data set [3] (setting [7]) was above 50 µM in each case.

Turning to `O=C(Nc1ccc2c(c1)CNC2)c1cc(Br)cc2[nH]c(-c3ccccc3)nc12`, the figures for the CC50 in data set [1] (setting [6]), in data set [4] (setting [8]) and in data set [2] (Vero E6 miRFP670 cells) were 3.3 µM, 14.3 µM and 10.7 µM, respectively. Besides, the CC10 in data set [4] (veroe6/tmprss2) stood at 0.098 µM.

For the compound `O=C(Nc1ccc2c(c1)CNCCC2)c1cc(Cl)cc2[nH]ncc12`, the cytotoxic concentration (CC50) in data set [1] (setting [6]) was 2.18 µM; in data set [4] (setting [8]) it was above 50 µM; in data set [2] (Vero E6 miRFP670 cells) it was 1.42 µM. Besides, in data set [4] (veroe6/tmprss2), the CC10 is below 0.023 µM.

With `CC(C)(C)NC(=O)[C@H](Nc1cccc(-c2nn[nH]n2)c1)c1cc(Cl)cc(NC(=O)OCc2ccccc2)c1`, the results for the CC50 in data set [1] (setting [6]), in data set [4] (setting [8]) and in data set [2] (Vero E6 miRFP670 cells) were 2.78 µM, above 50 µM and above 50 µM, respectively. The CC10 in data set [4] (veroe6/tmprss2) is above 50 µM.

In the case of `O=C(Nc1cc(Cl)cc([C@H]2CN(Cc3ccccc3)C[C@@H]2c2cccc(-c3nn[nH]n3)c2)c1)OCc1ccccc1`, the cytotoxic concentration (CC50) in data set [1] (setting [6]) was 12.3 µM; in data set [4] (setting [8]), above 50 µM; in data set [2] (Vero E6 miRFP670 cells), 12.5 µM. The CC10 in data set [4] (veroe6/tmprss2) was 34.224 µM.

Take `O=C(Nc1ccc2c(c1)CNC2)c1cccc2[nH]ncc12`: the CC50 in data set [1] (setting [6]) was 15.4 µM; in data set [4] (setting [8]), above 50 µM; in data set [2] (Vero E6 miRFP670 cells), 11.5 µM. Moreover, the CC10 in data set [4] (veroe6/tmprss2) is above 50 µM.

For `O=C(Nc1cc(Cl)cc(C(=O)Nc2ccc3c(c2)CNC3)c1)OCc1ccccc1`, the CC50 in data set [1] (setting [6]) was 12.1 µM; in data set [5] it was 16.6 µM; in data set [4] (veroe6/tmprss2), > 10 µM and 25.1 µM; in data set [2] (Vero E6 miRFP670 cells), 9.29 µM. In data set [5], this compound yielded a CC10 of 19.011 µM.

On to `O=C(Nc1ccc2c(c1)CNC2)c1cc(Br)cc2[nH]c(Cc3ccccc3)nc12`, for which the figures for the CC50 in data set [1] (setting [6]), in data set [4] (setting [8]) and in data set [2] (Vero E6 miRFP670 cells) were 9.98 µM, 16.5 µM and 11.6 µM, respectively. In data set [4] (veroe6/tmprss2), the CC10 was 0.199 µM.

Regarding `CCc1nc2c(C(=O)Nc3ccc4c(c3)CNC4)cc(Br)cc2[nH]1`, the figures for the CC50 in data set [1] (setting [6]), in data set [4] (setting [8]) and in data set [2] (Vero E6 miRFP670 cells) were above 50 µM, 33.5 µM and above 50 µM, respectively. Moreover, the CC10 in data set [4] (veroe6/tmprss2) was 0.32 µM.

For `CC(C)c1nc2c(C(=O)Nc3ccc4c(c3)CNC4)cc(Br)cc2[nH]1`, the half-maximal cytotoxic concentration (CC50) in data set [1] (setting [6]) amounted to 3.63 µM; in data set [4] (setting [8]), 19.2 µM; in data set [2] (Vero E6 miRFP670 cells) it was 2.65 µM. Also, the CC10 in data set [4] (veroe6/tmprss2) was found to be 0.476 µM.

As for `NCCCc1cccc(NC(=O)c2cc(Cl)cc(NC(=O)OCc3ccccc3)c2)n1`, the CC50 in data set [5] was 6.18 µM; in data set [4] (setting [8]), 14.9 µM; in data set [2] (Vero E6 miRFP670 cells), 4.43 µM. Further, the values for the CC10 in data set [5] and in data set [4] (veroe6/tmprss2) were 6.788 µM and 0.527 µM, respectively.

With `NCCc1ccc([C@H]2C[C@@H]2c2cc(Cl)cc(NC(=O)OCc3ccccc3)c2)cc1`, the CC50 in data set [1] (vero c1008) is 4.57 µM; in data set [1] (setting [6]), 5.29 µM; in data set [2] (Vero E6 miRFP670 cells), 2.43 µM; in data set [3] (setting [7]), 5.78 µM.

Turning to `O=C(Nc1cc(Cl)cc(C(=O)Nc2ccc(C3CCNCC3)cc2)c1)OCc1ccccc1`, the CC50 in data set [1] (setting [6]) turned out to be 3.1 µM; in data set [2] (Vero E6 miRFP670 cells) it was 2.82 µM; in data set [3] (setting [7]), 1.43 µM.

Take `Cc1cc(CN)cc(NC(=O)c2cc(Cl)cc(NC(=O)OCc3ccccc3)c2)c1`: the CC50 in data set [5] was 7.97 µM; in data set [4] (setting [8]) it was above 10 µM; in data set [4] (veroe6/tmprss2) it was 16.6 µM. In addition, the CC10 in data set [5] is 8.014 µM.

With `CC(C)OC(=O)Nc1cc(Cl)cc(C(=O)Nc2cccc(CN)c2)c1`, the CC50 is 4.99 µM in data set [1] (setting [6]), above 50 µM in data set [4] (setting [8]) and 20.5 µM in data set [2] (Vero E6 miRFP670 cells). In data set [4] (veroe6/tmprss2), the CC10 was below 0.023 µM.

As to `O=C(Nc1cc(Cl)cc(-c2ccc3cc(C(=O)O)[nH]c3c2)c1)OCc1ccccc1`, the results for the CC50 in data set [1] (setting [6]), in data set [2] (Vero E6 miRFP670 cells) and in data set [3] (setting [7]) were 24.8 µM, below 0.391 µM and 38.1 µM, respectively.

As to `O=C(Nc1cc(Cl)cc(C(=O)Nc2cccc(-c3nnn[nH]3)c2)c1)OCc1ccccc1`, the CC50 in data set [5] and in data set [4] (setting [8]) was above 50 µM each time. Besides, the values for the CC10 in data set [5] and in data set [4] (veroe6/tmprss2) were above 50 µM and 0.117 µM, respectively.

As to `CCc1cc(C(=O)Nc2cccc(CN)c2)sc1-c1ccc(Cl)cc1`, the values for the CC50 in data set [5], in data set [4] (setting [8]) and in data set [2] (Vero E6 miRFP670 cells) were 13.9 µM, 9.12 µM and 4.86 µM, respectively. The results for the CC10 in data set [5] and in data set [4] (veroe6/tmprss2) were 15.317 µM and 0.452 µM, respectively.

Take `Cc1cc(-c2ccc([C@@H](NC(=O)OCc3ccccc3)C(=O)Nc3cccc(CN)c3)cc2)cs1`: the CC50 in data set [5] was determined as 6.25 µM; in data set [4] (setting [8]), 21.2 µM. Also, the CC10 in data set [5] is 7.281 µM; in data set [4] (veroe6/tmprss2), 0.089 µM.

Consider `NCc1cccc(C(=O)Nc2cc(Cl)cc(NC(=O)OCc3ccccc3)c2)c1`, for which the figures for the CC50 in data set [5], in data set [4] (setting [8]) and in data set [4] (veroe6/tmprss2) were 6.67 µM, above 10 µM and 19.3 µM, respectively. Also, in data set [5], the CC10 came out at 8.366 µM.

As for `O=C(O)c1cc2cc(-c3cc(Cl)cc(C4CC4)c3)ccc2[nH]1`, the results for the cytotoxic concentration (CC50) in data set [1] (setting [6]), in data set [2] (Vero E6 miRFP670 cells) and in data set [3] (setting [7]) were 26.5 µM, 40.7 µM and 35.5 µM, respectively.

In the case of `Cc1[nH]c2ccccc2c1CN1CCC(c2c[nH]c3ncccc23)CC1`, the 50% cytotoxic concentration (CC50) was 31 µM in data set [1] (setting [6]), above 50 µM in data set [5], above 10 µM in data set [4] (setting [8]) and 25.2 µM in data set [2] (Vero E6 miRFP670 cells). The CC10 in data set [5] was above 50 µM.

For the compound `CCc1cc(Br)cc2c(Cc3ccc(-c4nnn[nH]4)cc3)c[nH]c12`, the half-maximal cytotoxic concentration (CC50) in data set [1] (vero c1008) amounted to 18.6 µM; in data set [1] (setting [6]), 23.1 µM; in data set [2] (Vero E6 miRFP670 cells) it was 19.4 µM; in data set [2] (vero c1008), 17.9 µM; in data set [3] (setting [7]) it was 21.7 µM.

As to `O=C(O)c1cc(Cl)ccc1NS(=O)(=O)c1ccc(Oc2ccccc2Cl)cc1`, in data set [5], the 50% cytotoxic concentration (CC50) was above 50 µM and the CC10 was above 50 µM.

`O=C(Nc1cc(Cl)cc(C(=O)Nc2cccc(-n3nn[nH]c3=O)c2)c1)OCc1ccccc1`: the CC50 in data set [1] (setting [6]), in data set [5] and in data set [2] (Vero E6 miRFP670 cells) was above 50 µM throughout. This compound returned a CC10 in data set [5] above 50 µM.

In general, CC50 refers to the concentration that lowers cell viability or growth by half.
